From patent publication US20040132780A1, “Method and compositions for treating migraines” (priority 2001, published 2004)

Test: pharmacokinetics of etoricoxib compared to traditional NSAIDs
Type: in vivo
Details: as compared to traditional NSAIDs such as naproxen

half-life: longer | time to maximum concentration: shorter
SMILES: Cc1ccc(-c2ncc(Cl)cc2-c2ccc(S(C)(=O)=O)cc2)cn1 [Etoricoxib, etoricoxib]
